{
  "source": "patent US11116811B2",
  "about": "“Pharmaceutical composition comprising refined indigo naturalis extracts and the use thereof” (Galderma S.A., priority 2015, dated 2021)",
  "key": {"NFκB": {"system": "NFκB", "test": "TNFα-induced NFκB activation reporter assay in 293/NFκB-Luc cells", "format": "cell-based", "settings": "Homo sapiens; TNFα-stimulated 293/NFκB-Luc, luciferase; replicate values separated by /; read-out: pro-inflammatory cytokine production IC50 (NFKB)"}, "[1]": {"system": "IL-22 induced psoriasis-like mouse models", "test": "IL-22 induced psoriasis-like mouse model, ear thickness", "format": "in vivo, BABL/c mice", "parameters": "AUC of ear thickness: unit not given here", "experimental": "• BABL/c mice, male, body weight 19-22 g, purchased from Shanghai SLC AnimalCenter. • Room temperature: 24±1° C. • Room relative humidity: 40-70% • Light cycle: Fluorescent light for 12-hour light (8:00-20:00) 12-hour dark • Animal hosting: 4 mice/cage • Food: Free access to food (irradiated, Shanghai SLAC Laboratory Animal Co. Ltd., China) • Water: Free access to tap water from local supply (first filtered by Molanimal ultrapure water machine from the municipal water supply) Instruments • MJ Research PTC-200 Peltier Thermal cycler (Alpha Unit™ Block Assembly for PTC DNA Engine™ systems) • Applied Biosystems 7500 realtime PCR system • Digimatic micrometer caliper: Mitutoyo, Japan. Accuracy: 0.001 mm Reagents • Recombinant mouse IL-22 (rmIL-22), Novoprotein (sinobio), Cat. C047, Lot. 0375351 • High capacity cDNA Reverse Transcription kit, Applied Biosystems, Part No.: 4368813, Lot: 0909069 • Thermo Scientific ABsolute SYBR Green Rox Mix, Thermo Scientific, Cat: AB-1163/A, Lot: 0911/16 Positive Control • Protopic® (tacrolimus, FK506), 0.1% ointment, Astellas Toyama Co., Ltd. Toyama Plant, H20100079, Lot: 028680. Dosing Regimen\nDifferent concentrations of test samples, vehicle, or 0.1% of FK506 ointment, were topically administrated at 1% one hour after the induction of model and then given daily from day 1 to day 11, twice a day. The first day of administration of a test article was regarded as day 0.\nTopical application, b.i.d.\nIntradermal injection of 20 μL PBS, either alone or containing 100 or 500 ng recombinant mouse IL-22 (eBiosience), was administered into the ears of anesthetized mice using a 30-gauge needle every other day for eleven days. Ear thicknesses were measured before injection on day 0 and thereafter on days without injections. Ear measurements were taken at the center of the ears using a digimatic micrometer caliper (Mitutoyo).\nTwenty-four hours after the last IL-22 treatment, mice were sacrificed, and ears were collected for further analysis.\nResults of ear thickness data were expressed as mean±S. E. M. AUC of ear swelling was calculated by the ear thickness data from day 0 to day 11, and analyzed by repeated-measured ANOVA methods with IMP® software. Cytokine protein and gene expression data were evaluated with a one-way ANOVA and followed by student's t-test for post-hoc analysis. (Significance level was set at p<0.05)."}, "[2]": {"settings": "study 1, IL-22 100 ng in 20 μL i.d."}, "[3]": {"settings": "study 1, IL-22 500 ng in 20 μL i.d."}},
  "data": [
    {"molecule": "C=C1CC[C@@H]2[C@](C)(CO)[C@H](O)CC[C@@]2(C)[C@@H]1C/C=C1/C(=O)OC[C@H]1O", "note": "[LGT, Andrographolide]", "values": [
      {"measurement": "IC50", "setting": "NFκB", "value": 0.45, "unit": "ng/mL"}
    ]},
    {"molecule": "C=CC[C@@H]1/C=C(\\C)C[C@H](C)C[C@H](OC)[C@H]2O[C@@](O)(C(=O)C(=O)N3CCCC[C@H]3C(=O)O[C@H](/C(C)=C/[C@@H]3CC[C@@H](O)[C@H](OC)C3)[C@H](C)[C@@H](O)CC1=O)[C@H](C)C[C@@H]2OC", "note": "[FK506, tacrolimus]", "values": [
      {"measurement": "AUC of ear thickness", "setting": "[1]; study 2, 0.1% topical b.i.d.", "value": 403},
      {"measurement": "ear thickness on day 11", "setting": "[1]; study 2, 0.1% topical b.i.d.", "value": "256.8 ± 3.5", "unit": "μm"},
      {"measurement": "inhibition of AUC of ear thickness", "setting": "[1]; study 2, 0.1% topical b.i.d.", "value": 79.2, "unit": "%"},
      {"measurement": "AUC of ear thickness", "setting": "[1]; study 3, 0.1% topical b.i.d.", "value": 369},
      {"measurement": "ear thickness on day 11", "setting": "[1]; study 3, 0.1% topical b.i.d.", "value": "278.8 ± 5.0", "unit": "μm"},
      {"measurement": "inhibition of AUC of ear thickness", "setting": "[1]; study 3, 0.1% topical b.i.d.", "value": 81.3, "unit": "%"},
      {"measurement": "AUC of ear thickness", "setting": "[1]; study 4, 0.1% topical b.i.d.", "value": 446},
      {"measurement": "ear thickness on day 11", "setting": "[1]; study 4, 0.1% topical b.i.d.", "value": "260.4 ± 4.5", "unit": "μm"},
      {"measurement": "inhibition of AUC of ear thickness", "setting": "[1]; study 4, 0.1% topical b.i.d.", "value": 80.4, "unit": "%"},
      {"measurement": "AUC of ear thickness", "setting": "[1]; study 5, 0.1% topical b.i.d.", "value": 454},
      {"measurement": "ear thickness on day 11", "setting": "[1]; study 5, 0.1% topical b.i.d.", "value": "263.4 ± 6.3", "unit": "μm"},
      {"measurement": "inhibition of AUC of ear thickness", "setting": "[1]; study 5, 0.1% topical b.i.d.", "value": 70.4, "unit": "%"}
    ]},
    {"molecule": "IL-22: Recombinant mouse IL-22, injected intradermally into ears to induce the psoriasis-like model (protein, UniProt Q9JJY9 34-179, looked up) Interleukin-22: LPVNTRCKLEVSNFQQPYIVNRTFMLAKEASLADNNTDVRLIGEKLFRGVSAKDQCYLMKQVLNFTLEDVLLPQSDRFQPYMQEVVPFLTKLSNQLSSCHISGDDQNIQKNVRRLKETVKKLGESGEIKAIGELDLLFMSLRNACV", "values": [
      {"measurement": "AUC of ear thickness", "setting": "[1]; [2]", "value": 590},
      {"measurement": "ear thickness on day 11", "setting": "[1]; [2]", "value": "248.3 ± 1.9, μm"},
      {"measurement": "ear thickness (d15)", "setting": "[1]; study 1, IL-22 100 ng in 20 μL i.d., d15", "value": "255.3 ± 15.1", "unit": "μm"},
      {"measurement": "AUC of ear thickness", "setting": "[1]; [3]", "value": 1055},
      {"measurement": "ear thickness on day 11", "setting": "[1]; [3]", "value": "311.3 ± 18.0, μm"},
      {"measurement": "ear thickness, second value", "setting": "[1]; study 1, IL-22 500 ng in 20 μL i.d., second value (day not given)", "value": "296.3 ± 5.0", "unit": "μm"}
    ]}
  ]
}
